How the values were obtained:
[1] = Dissolution testing of tablet formulations A and B (USP apparatus II with paddles, 50 rpm, 900 ml 0.1N HCl); assay type: physicochemical; conditions: USP apparatus II paddles 50 rpm, typical range for both formulations
Protocol: Tablet formulations A and B prepared as above are subjected to dissolution testing for both levodopa and carbidopa (USP apparatus II with paddles, 50 rpm, dissolution medium 900 ml 0.1N HCl) over a 12 hour period.

[2] = approximately; background statement; cited from earlier work

SMILES	% Dissolved ([1]; time 1 h)	% Dissolved ([1]; time 2 h)	% Dissolved ([1]; time 4 h)	% Dissolved ([1]; time 8 h)	% Dissolved ([1]; time 12 h)	half-life [2]
C[C@@](Cc1ccc(O)c(O)c1)(NN)C(=O)O [carbidopa]	15-25%	25-40%	40-70%	65-80%	80-95%	
N[C@@H](Cc1ccc(O)c(O)c1)C(=O)O [levodopa, 3,4-dihydroxy-L-phenylalanine]	15-25%	25-40%	40-70%	65-80%	80-95%	45 to 90 min
